Read-outs that look alike come from different tables or passages of the source.
How the values were obtained:
A431 = A431 cell proliferation assay (CellTiter Glo, 72 hours); format: cell-based; settings: cell proliferation, A431, 72 hours, Table 2, read-out: A431 IC50
Method in brief: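 A431 cells (2000/well) exposed 72 h to compound at 1000 nM down to 0.2 nM in 3-fold steps, 0.1% DMSO (0.5% for some series). Viability by CellTiter-Glo luminescence; IC50 by four-parameter nonlinear regression.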

EGFRΔ19del/T790M/C797S = EGFRΔ19del/T790M/C797S (Homo sapiens, UniProt P00533, T790M/C797S, form not given); assay: EGFR Δ19del/T790M/C797S kinase test (mobility variation analysis, Caliper EZ Reader); format: biochemical; settings: kinase enzymatic activity, Table 1
Sequence of EGFRΔ19del/T790M/C797S (P00533 with tags, fused parts or gaps DEL746-750/T790M/C797S, form open): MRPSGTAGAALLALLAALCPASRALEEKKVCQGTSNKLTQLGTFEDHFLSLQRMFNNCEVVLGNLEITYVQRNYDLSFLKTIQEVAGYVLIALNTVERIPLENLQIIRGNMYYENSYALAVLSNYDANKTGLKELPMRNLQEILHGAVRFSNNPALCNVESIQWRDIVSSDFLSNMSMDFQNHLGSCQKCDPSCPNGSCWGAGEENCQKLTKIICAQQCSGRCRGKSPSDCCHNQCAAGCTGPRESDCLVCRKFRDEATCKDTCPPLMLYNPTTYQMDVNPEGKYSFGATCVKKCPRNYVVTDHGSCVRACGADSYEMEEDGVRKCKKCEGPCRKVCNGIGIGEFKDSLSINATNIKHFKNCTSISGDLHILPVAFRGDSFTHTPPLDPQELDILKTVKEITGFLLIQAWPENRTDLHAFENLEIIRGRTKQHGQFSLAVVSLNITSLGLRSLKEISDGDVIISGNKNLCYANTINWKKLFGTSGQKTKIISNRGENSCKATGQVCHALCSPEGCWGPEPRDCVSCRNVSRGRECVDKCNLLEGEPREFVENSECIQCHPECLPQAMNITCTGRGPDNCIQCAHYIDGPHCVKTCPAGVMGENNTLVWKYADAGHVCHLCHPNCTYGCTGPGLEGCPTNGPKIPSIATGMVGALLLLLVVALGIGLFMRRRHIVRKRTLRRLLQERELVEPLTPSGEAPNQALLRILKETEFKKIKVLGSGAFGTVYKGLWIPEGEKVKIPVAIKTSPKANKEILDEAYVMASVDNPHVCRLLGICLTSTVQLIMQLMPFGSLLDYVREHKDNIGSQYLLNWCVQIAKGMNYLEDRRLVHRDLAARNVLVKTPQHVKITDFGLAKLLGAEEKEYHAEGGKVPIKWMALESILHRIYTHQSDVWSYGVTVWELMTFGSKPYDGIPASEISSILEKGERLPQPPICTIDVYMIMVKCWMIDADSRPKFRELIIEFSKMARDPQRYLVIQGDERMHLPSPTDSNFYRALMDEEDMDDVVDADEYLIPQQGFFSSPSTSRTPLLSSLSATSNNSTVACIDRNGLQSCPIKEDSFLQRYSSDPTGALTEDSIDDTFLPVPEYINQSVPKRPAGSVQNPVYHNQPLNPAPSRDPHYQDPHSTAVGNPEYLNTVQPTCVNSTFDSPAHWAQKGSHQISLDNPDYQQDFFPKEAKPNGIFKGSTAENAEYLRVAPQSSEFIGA
Method in brief: (§1)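 Kinase pre-incubated with compound 10 minutes at room temperature, then ATP plus peptide substrate added; substrate conversion read by mobility shift after stop solution. Percent inhibition normalized to no-compound and no-enzyme controls; IC50 from variable-slope log(inhibitor) fit.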

[1] = target: Ba/F3-EGFR wild-type cell line (Homo sapiens, UniProt P00533); assay: Ba/F3-EGFR wild-type cell proliferation assay (CellTiter Glo, 72 hours); format: cell-based; settings: Table 2, read-out: EGFR WT IC50
Method in brief: (§2)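 Ba/F3 cells stably overexpressing wild-type EGFR or EGFR Δ19del/T790M/C797S were seeded at 2000 cells/well and incubated 72 h with compound. Viability was read by CellTiter-Glo luminescence, and IC50 came from a four-parameter logistic fit of signal against log concentration.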

[2] = target: Ba/F3 cells with EGFR Δ19del/T790M/C797S mutation gene stably overexpressed (Homo sapiens, UniProt P00533, T790M/C797S, cells depend on it, form not given); assay: Ba/F3-Δ19del/T790M/C797S cell proliferation assay (CellTiter Glo, 72 hours); format: cell-based; settings: Table 2, read-out: EGFR Δ19del/T790M/C797S IC50
Sequence of Ba/F3 cells with EGFR Δ19del/T790M/C797S mutation gene stably overexpressed (P00533 with tags, fused parts or gaps DEL746-750/T790M/C797S, form open): as above
Method in brief: as §2

IGF1R = IGF1R (Homo sapiens, UniProt P08069); assay: IGF1R kinase test (mobility variation analysis, Caliper EZ Reader); format: biochemical; settings: kinase enzymatic activity, Table 1; read-out: EGFR IGF1R IC50
Sequence of IGF1R (P08069 31-1367, species assumed): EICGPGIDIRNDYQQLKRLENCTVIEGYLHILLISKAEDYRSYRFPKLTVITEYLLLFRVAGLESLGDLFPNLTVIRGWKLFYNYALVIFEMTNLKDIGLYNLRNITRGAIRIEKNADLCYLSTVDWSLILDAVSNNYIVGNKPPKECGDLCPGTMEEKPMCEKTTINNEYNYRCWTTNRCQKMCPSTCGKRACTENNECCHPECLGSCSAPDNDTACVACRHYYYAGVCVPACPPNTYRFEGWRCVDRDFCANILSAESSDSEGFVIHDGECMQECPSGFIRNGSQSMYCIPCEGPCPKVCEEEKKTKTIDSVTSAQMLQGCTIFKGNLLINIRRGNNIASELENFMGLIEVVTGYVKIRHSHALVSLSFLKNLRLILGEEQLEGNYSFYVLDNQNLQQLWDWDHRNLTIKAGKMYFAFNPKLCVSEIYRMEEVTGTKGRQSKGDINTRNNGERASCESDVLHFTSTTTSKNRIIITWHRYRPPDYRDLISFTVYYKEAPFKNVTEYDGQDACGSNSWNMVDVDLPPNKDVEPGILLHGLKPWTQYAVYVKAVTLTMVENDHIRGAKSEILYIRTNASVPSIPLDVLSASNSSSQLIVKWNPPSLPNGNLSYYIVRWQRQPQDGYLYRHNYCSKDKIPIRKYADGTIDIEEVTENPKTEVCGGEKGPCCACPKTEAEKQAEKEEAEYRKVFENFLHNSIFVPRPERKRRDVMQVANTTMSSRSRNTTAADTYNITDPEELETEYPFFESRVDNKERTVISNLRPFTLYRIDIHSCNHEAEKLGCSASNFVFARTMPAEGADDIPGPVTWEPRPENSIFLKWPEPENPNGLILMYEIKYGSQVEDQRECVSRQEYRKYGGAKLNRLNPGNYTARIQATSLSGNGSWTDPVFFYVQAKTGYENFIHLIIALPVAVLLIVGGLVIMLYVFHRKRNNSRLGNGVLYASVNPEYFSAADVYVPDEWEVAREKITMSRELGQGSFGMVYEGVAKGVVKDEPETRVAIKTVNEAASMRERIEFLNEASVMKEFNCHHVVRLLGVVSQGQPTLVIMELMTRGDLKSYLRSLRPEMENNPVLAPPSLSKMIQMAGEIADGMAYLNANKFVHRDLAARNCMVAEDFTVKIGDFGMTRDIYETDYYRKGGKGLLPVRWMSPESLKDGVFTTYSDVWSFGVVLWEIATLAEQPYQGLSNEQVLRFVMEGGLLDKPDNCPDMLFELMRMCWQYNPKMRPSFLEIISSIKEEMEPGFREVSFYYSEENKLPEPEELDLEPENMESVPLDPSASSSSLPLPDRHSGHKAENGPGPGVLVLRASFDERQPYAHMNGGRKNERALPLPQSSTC
Method in brief: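 Kinase preincubated 10 min at room temperature with compound (10-point 3-fold series, top 3000 nM), then ATP and substrate added and reacted at room temperature. Substrate conversion read by mobility-shift (Caliper EZ Reader); % inhibition vs no-enzyme and no-compound controls fitted to variable-slope curve for IC50.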

EGFR WT = EGFR WT (Homo sapiens, UniProt P00533); assay: EGFR WT kinase test (mobility variation analysis, Caliper EZ Reader); format: biochemical; settings: kinase enzymatic activity, Table 1
Sequence of EGFR WT (P00533 25-1210): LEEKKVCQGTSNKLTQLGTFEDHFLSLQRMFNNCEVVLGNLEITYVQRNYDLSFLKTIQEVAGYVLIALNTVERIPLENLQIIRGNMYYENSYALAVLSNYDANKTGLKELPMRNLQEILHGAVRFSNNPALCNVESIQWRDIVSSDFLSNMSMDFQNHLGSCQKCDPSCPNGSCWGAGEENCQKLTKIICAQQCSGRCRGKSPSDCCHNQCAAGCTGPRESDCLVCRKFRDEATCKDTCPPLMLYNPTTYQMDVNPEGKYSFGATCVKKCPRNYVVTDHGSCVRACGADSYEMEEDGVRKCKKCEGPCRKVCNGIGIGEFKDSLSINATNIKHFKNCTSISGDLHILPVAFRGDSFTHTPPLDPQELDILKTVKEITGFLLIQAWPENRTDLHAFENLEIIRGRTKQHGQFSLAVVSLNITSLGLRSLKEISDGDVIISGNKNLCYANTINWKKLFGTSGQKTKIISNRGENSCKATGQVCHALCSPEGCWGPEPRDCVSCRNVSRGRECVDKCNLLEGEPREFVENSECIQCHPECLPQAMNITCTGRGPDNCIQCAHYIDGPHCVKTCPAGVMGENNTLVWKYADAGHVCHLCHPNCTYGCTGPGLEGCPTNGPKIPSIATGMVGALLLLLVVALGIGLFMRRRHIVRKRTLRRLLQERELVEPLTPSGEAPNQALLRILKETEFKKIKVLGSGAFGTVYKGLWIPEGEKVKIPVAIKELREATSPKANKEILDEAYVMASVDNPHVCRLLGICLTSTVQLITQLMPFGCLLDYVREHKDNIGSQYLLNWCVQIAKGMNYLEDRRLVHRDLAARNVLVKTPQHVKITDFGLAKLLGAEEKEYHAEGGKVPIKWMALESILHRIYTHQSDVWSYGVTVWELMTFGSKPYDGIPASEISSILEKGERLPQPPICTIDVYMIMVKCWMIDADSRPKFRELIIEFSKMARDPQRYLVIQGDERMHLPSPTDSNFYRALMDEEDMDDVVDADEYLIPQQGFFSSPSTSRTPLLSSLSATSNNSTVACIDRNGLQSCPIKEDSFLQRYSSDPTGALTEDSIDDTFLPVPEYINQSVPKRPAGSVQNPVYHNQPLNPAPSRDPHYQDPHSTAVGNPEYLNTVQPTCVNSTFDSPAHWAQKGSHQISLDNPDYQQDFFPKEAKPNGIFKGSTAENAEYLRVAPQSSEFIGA
Method in brief: as §1

Row | Compound | IC50 (A431; Homo sapiens, A-431, 72 h) [nM] | IC50 (EGFRΔ19del/T790M/C797S) [nM] | GI50 [1] [nM] | GI50 [2] [nM] | IC50 (IGF1R) [nM] | IC50 (EGFR WT) [nM] | IC50 (A431) [nM]
1 | COc1cc(Nc2ncc(Br)c(Nc3ccc(-c4cnccn4)cc3P(C)(C)=O)n2)c(C)cc1N1CCOCC1 [Compound K-022] | 1460 | 0.2 | 281 | 16.5 | 52.5 | 31.8 | –
2 | C#Cc1cncc(-c2ccc(Nc3nc(Nc4cc(CC)c(N5CCC(N6CCN(C)CC6)CC5)cc4OC)ncc3Br)c(P(C)(C)=O)c2)n1 [Compound K-013, (2-((5-Bromo-2-((5-ethyl-2-methoxy-4-(4-(4-methylpiperazin-1-yl)piperidin-1-yl)phenyl)amino)pyrimidin-4-yl)amino)-5-(6-ethynylpyrazin-2-yl)phenyl)dimethylphosphine oxide] | 1420 | 0.3 | 70 | 15.2 | 166 | 22.1 | –
3 | COc1cnn(-c2ccc(Nc3nc(Nc4cc(OC)c(N5CCN(C)CC5)cc4C)ncc3Br)c(P(C)(C)=O)c2)c1 [Compound K-028, (2-((5-Bromo-2-((5-methoxy-2-methyl-4-(4-methylpiperazin-1-yl)phenyl)amino)pyrimidin-4-yl)amino)-5-(4-methoxy-1H-pyrazol-1-yl)phenyl)-dimethylphosphine oxide] | 1240 | 0.1 | 226 | 5.7 | 39.1 | 26 | –
4 | CCc1cc(Nc2ncc(Br)c(Nc3ccc(-c4cnccn4)cc3P(C)(C)=O)n2)c(OC)cc1N1CCC(N2CCN(C)CC2)CC1 [Compound 78, (2-((5-Bromo-2-((5-ethyl-2-methoxy-4-(4-(4-methylpiperazin-1-yl)piperidin-1-yl)phenyl)amino)pyrimidin-4-yl)amino)-5-(pyrazin-2-yl)phenyl)dimethylphosphine oxide] | 1090 | 0.2 | 134 | 7.2 | 94 | 12.6 | –
5 | CCc1cc(Nc2ncc(Br)c(Nc3ccc(-c4cscn4)cc3P(C)(C)=O)n2)c(OC)cc1N1CCC(N2CCN(C)CC2)CC1 [Compound 28, (2-((5-Bromo-2-((5-ethyl-2-methoxy-4-(4-(4-methylpiperazin-1-yl)piperidin-1-yl)phenyl)amino)pyrimidin-4-yl)amino)-5-(thiazol-4-yl)phenyl)dimethylphosphine oxide] | 778 | 0.2 | 171 | 9.9 | 61 | 12 | –
6 | C#Cc1cnc(-c2ccc(Nc3nc(Nc4cc(OC)c(N5CCC(N6CCN(C)CC6)CC5)cc4C)ncc3Br)c(P(C)(C)=O)c2)cn1 [Compound K-014, (2-((5-Bromo-2-((5-methoxy-2-methyl-4-(4-(4-methylpiperazin-1-yl)piperidin-1-yl)phenyl)imino)pyrimidin-4-yl)amino)-5-(5-ethynylpyrazin-2-yl)phenyl)dimethylphosphine oxide] | 816 | 0.5 | 56 | 7.6 | 50.5 | 32.5 | –
7 | COc1cc(Nc2ncc(Br)c(Nc3ccc(-c4cnn(C)n4)cc3P(C)(C)=O)n2)c(C)cc1N1CCC(N2CCOCC2)CC1 [Compound K-021, (2-((5-Bromo-2-((5-methoxy-2-methyl-4-(4-morpholinopiperidin-1-yl)phenyl)amino)pyrimidin-4-yl)amino)-5-(2-methyl-2H-1,2,3-triazol-4-yl)phenyl)dimethylphosphine oxide] | 3870 | 0.3 | 84 | 2.3 | 21.6 | 8.4 | –
8 | CCc1cnc(-c2ccc(Nc3nc(Nc4cc(CC)c(N5CCC(N6CCN(C)CC6)CC5)cc4OC)ncc3Br)c(P(C)(C)=O)c2)nc1 [Compound 70] | 6290 | 0.9 | 407 | 9 | 246 | 38.6 | –
9 | CCc1cc(Nc2ncc(Br)c(Nc3ccc(-c4ccccc4)cc3P(C)(C)=O)n2)c(OC)cc1N1CCC(N2CCN(C)CC2)CC1 [Compound 1] | 935 | 0.5 | 171 | 2.2 | 91.5 | 10.3 | –

Next, values leading:

Row | IC50 (A431; Homo sapiens, A-431, 72 h) [nM] | IC50 (EGFRΔ19del/T790M/C797S) [nM] | GI50 [1] [nM] | GI50 [2] [nM] | IC50 (IGF1R) [nM] | IC50 (EGFR WT) [nM] | IC50 (A431) [nM] | Compound
10 | 6630 | 0.3 | 302 | 14.5 | 134 | 24.5 | – | CCc1cc(Nc2ncc(Br)c(Nc3ccc(-c4cnn(C)n4)cc3P(C)(C)=O)n2)c(OC)cc1N1CCC(N2CCOCC2)CC1 [Compound K-040, (2-((5-Bromo-2-((5-ethyl-2-methoxy-4-(4-morpholinopiperidin-1-yl)phenyl)amino)pyrimidin-4-yl)amino)-5-(2-methyl-2H-1,2,3-triazol-4-yl)phenyl)dimethylphosphine oxide]
11 | – | 0.67 | 355 | 37.4 | 219 | 26.7 | 1610 | CCc1cc(Nc2ncc(Br)c(Nc3ccc(-n4cc(C)cn4)cc3P(C)(C)=O)n2)c(OC)cc1N1CCC(N2CCN(C)CC2)CC1 [Compound K-069, (2-((5-Bromo-2-((5-ethyl-2-methoxy-4-(4-(4-methylpiperazin-1-yl)piperidin-1-yl)phenyl)amino)pyrimidin-4-yl)amino)-5-(4-methyl-1H-pyrazol-1-yl)phenyl)dimethylphosphine oxide]
12 | 23100 | 1 | 156 | 12.9 | 587 | 77.2 | – | CCc1cc(Nc2ncc(Br)c(Nc3ccc(-c4ccccc4F)cc3P(C)(C)=O)n2)c(OC)cc1N1CCC(N2CCOCC2)CC1 [Compound K-048]
13 | 815 | 0.4 | 206 | 4.3 | 71 | 15.9 | – | CCc1cc(Nc2ncc(Br)c(Nc3ccc(-c4cnn(C)c4)cc3P(C)(C)=O)n2)c(OC)cc1N1CCC(N2CCOCC2)CC1 [Compound K-042, (2-((5-Bromo-2-((5-ethyl-2-methoxy-4-(4-morpholinopiperidin-1-vi)phenyl)amino)pyrimidin-4-yl)amino)-5-(1-methyl-1-pyrazol-4-yl)phenyl)-dimethylphosphine oxide]
14 | 280 | 0.3 | 166 | 3.8 | 38.2 | 8.2 | – | CCc1cc(Nc2ncc(Br)c(Nc3ccc(-c4cnn(C)c4)cc3P(C)(C)=O)n2)c(OC)cc1N1CCC(N(C)C)CC1 [Compound K-044, (2-((5-Bromo-2-((4-(4-(dimethylamino)piperidin-1-yl)-5-ethyl-2-methoxyphenyl)amino)pyrimidin-4-yl)amino)-5-(1-methyl-1H-pyrazol-4-yl)phenyl)dimethylphosphine oxide]
15 | 317 | 0.4 | 147 | 15.8 | 14.7 | 12.2 | – | CCc1cc(Nc2ncc(Br)c(Nc3ccc(-c4cnn(C)c4)c(OC)c3P(C)(C)=O)n2)c(OC)cc1N1CCC(N2CCN(C)CC2)CC1 [Compound K-041, (6-((5-Bromo-2-((5-ethyl-2-methoxy-4-(4-(4-methylpiperazin-1-yl)piperidin-1-yl)phenyl)amino)pyrimidin-4-yl)amino)-2-methoxy-3-(1-methyl-1H-pyrazol-4-yl)phenyl)dimethylphosphine oxide]
16 | 1040 | 0.2 | 114 | 15.4 | 56.1 | 19.2 | – | COc1cnn(-c2ccc(Nc3nc(Nc4cc(OC)c(N5CCC(N(C)C)CC5)cc4C)ncc3Br)c(P(C)(C)=O)c2)c1 [Compound K-038, (2-((5-Bromo-2-((4-(4-(dimethylamino)piperidin-1-yl)-5-methoxy-2-methylphenyl)amino)pyrimidine-4-yl)amino)-5-(4-methoxy-1H-pyrazol-1-yl)phenyl)dimethylphosphine oxide]
17 | 1800 | 0.2 | 459 | 23.9 | 126 | 18 | – | CCc1cc(Nc2ncc(Br)c(Nc3ccc(-c4cnn(CC)n4)cc3P(C)(C)=O)n2)c(OC)cc1N1CCC(N2CCN(C)CC2)CC1 [Compound K-062, (2-((5-Bromo-2-((5-ethyl-2-methoxy-4-(4-(4-methylpiperazin-1-yl)piperidin-1-yl)phenyl)amino)pyrimidin-4-yl)amino)-5-(2-ethyl-2H-1,2,3-triazol-4-yl)phenyl)dimethylphosphine oxide]

Source: patent US20220402948A1, “EGFR INHIBITOR, COMPOSITION AND PREPARATION METHOD THEREFOR” (BETTA PHARMACEUTICALS CO., LTD., priority 2019, published 2022)
